Source: patent US8883793B2, “Tubulin inhibitors and methods of using the same” (Development Center for Biotechnology, priority 2010, dated 2014)

tested on: biotinylated tubulin; test: Colchicine competitive-binding assay; conditions: at 10 μM concentration; 3H-colchicine; left column pair of Table 7
Protocol: The colchicine competitive-binding assay was done by using the Colchicine Site competitive Assay Kit (Cytoskeleton, Inc.), streptavidin-coated yttrium SPA beads(GE Healthcare, Inc.), and ^3H-colchicine(PerkinElmer, Inc.). Briefly, the binding mixture includes 1 μL^3H-labeled ligand (specific activity […]), and 1 μg biotinylated tubulin and 88 μg SPA beads in 200 μL assay buffer. The test compound and ^3H-labeled ligand were added before tubulin. After incubation at 37° C. for 2 hours, the SPA beads were allowed to settle down for 24 hours at room temperature, and scintillation counting was done on the TopCount Microplate Scintillation Counter.

SMILES	binding rate (%) (colchicine competitive-binding)
Cc1ccc(CCC(=O)Nc2ncc(Cc3ccccc3)s2)o1 [Compound 1, N-(5-Benzyl-thiazol-2-yl)-3-(5-methyl-furan-2-yl)-propionamide]	50.2
O=C(CCc1cccnc1)Nc1ncc(Cc2ccc(F)cc2)s1 [Compound 4, N-[5-(4-Fluoro-benzyl)-thiazol-2-yl]-3-pyridin-3-yl-propionamide]	58.6
COc1ccc(Cc2cnc(NC(=O)CCc3ccc(C)o3)s2)cc1 [Compound 5, N-[5-(4-Methoxy-benzyl)-thiazol-2-yl]-3-(5-methyl-furan-2-yl)-propionamide]	63.8

tested on: KB cell; test: MTS assay, growth inhibition of KB cells; format: cell-based; conditions: Homo sapiens, at 10 μM concentration, incubated for 72 h, read-out: Inhibition rate (%) (growth inhibition rate of MTS assay)
Protocol: MTS assay was performed in determining the growth inhibition of cancer cells. MTS ((3-(4,5-dimethylthiazol-2-yl)-5-(3-carboxymethoxyphenyl)-2-(4-sulfophenyl)-2H-tetrazolium)), in the presence of phenazine methosulfate (PMS) and reductases, produces a formazan product that has an absorbance maximum at 490-500 nm. MTS assays (and closely related MTT assay) are commonly used to measure cell viabilities or survivals.
Briefly, KB/Hela, NCI-H460, A375, Colo205, HCT-116, U937, MCF-7, MDA-MB-231, A549, H1975 cells were seeded into 96-well plate at 4000, 4000, 2000, 2000, 2000 cells/well. After 24 h for attachment, test compound was added into each well and incubated for 72 h. A total of 20 μl of MTS reaction reagent containing the MTS (Promega, Madison, Wis.) and PMS in a ratio of 20:1 was added into each well to react with dehydrogenase enzyme in survival cells. After 3 h, the absorbance at 490 nm was monitored using Emax precision microplate reader (Molecular Devices, Sunnyvale, Calif.).
The growth inhibition rate of MTS assay at KB cell of these compounds (at 10 μM concentration) are list in Table 5.

SMILES	inhibition at 10 µM [%]
Cc1ccc(CCC(=O)Nc2ncc(Cc3ccccc3)s2)o1 [Compound 1, N-(5-Benzyl-thiazol-2-yl)-3-(5-methyl-furan-2-yl)-propionamide]	95.4
O=C(CCc1cccnc1)Nc1ncc(Cc2ccc(F)cc2)s1 [Compound 4, N-[5-(4-Fluoro-benzyl)-thiazol-2-yl]-3-pyridin-3-yl-propionamide]	93.9
COc1ccc(Cc2cnc(NC(=O)CCc3ccc(C)o3)s2)cc1 [Compound 5, N-[5-(4-Methoxy-benzyl)-thiazol-2-yl]-3-(5-methyl-furan-2-yl)-propionamide]	95.8
O=C(CCc1ccc(F)cc1)Nc1ncc(Sc2ccccc2)s1 [Compound 65, 3-(4-Fluoro-phenyl)-N-(5-phenylsulfanyl-thiazol-2-yl)-propionamide]	96.3
O=C(CCc1cccnc1)Nc1ncc(Sc2ccccc2)s1 [Compound 66, N-(5-Phenylsulfanyl-thiazol-2-yl)-3-pyridin-3-yl-propionamide]	93.3
O=C(CCc1ccccc1)Nc1ncc(Sc2ccccc2)s1 [Compound 67, 3-Phenyl-N-(5-phenylsulfanyl-thiazol-2-yl)-propionamide]	96.6
COc1cccc(CCC(=O)Nc2ncc(Sc3ccccc3)s2)c1 [Compound 68, 3-(3-Methoxy-phenyl)-N-(5-phenylsulfanyl-thiazol-2-yl)-propionamide]	94.4
Cc1ccc(CCC(=O)Nc2ncc(Sc3ccccc3)s2)o1 [Compound 72, 3-(5-Methyl-furan-2-yl)-N-(5-phenylsulfanyl-thiazol-2-yl)-propionamide]	60
O=C(CCc1ccc(-c2ccccc2)cc1)Nc1ncc(Sc2ccccc2)s1 [Compound 73, 3-Biphenyl-4-yl-N-(5-phenylsulfanyl-thiazol-2-yl)-propionamide]	97
COc1ccc(Oc2cnc(NC(=O)CCc3ccc(C)o3)s2)cc1 [Compound 74, N-[5-(4-Methoxy-phenoxy)-thiazol-2-yl]-3-(5-methyl-furan-2-yl)-propionamide]	96.9
O=C(CCc1ccccc1)Nc1ncc(SCc2ccccc2)s1 [Compound 75, N-(5-Benzylsulfanyl-thiazol-2-yl)-3-phenyl-propionamide]	82.5
COc1cccc(N2CCN(c3cnc(NC(=O)CCc4ccccc4)s3)CC2)c1 [Compound 76, N-{5-[4-(3-Methoxy-phenyl)-piperazin-1-yl]-thiazol-2-yl}-3-phenyl-propionamide]	95
Cc1ccc(CCC(=O)Nc2ccc(-n3ccc4ccccc43)cn2)o1 [Compound 78, N-(5-Indol-1-yl-pyridin-2-yl)-3-(5-methyl-furan-2-yl)-propionamide]	93.9
Cc1ccc(CCC(=O)Nc2ccc(Sc3ccccc3)cn2)o1 [Compound 80, 3-(5-Methyl-furan-2-yl)-N-(5-phenylsulfanyl-pyridin-2-yl)-propionamide]	79.4
O=C(CCc1cccnc1)Nc1ccc(Sc2ccccc2)cn1 [Compound 82, N-(5-Phenylsulfanyl-pyridin-2-yl)-3-pyridin-3-yl-propionamide]	95.6
O=C(CCc1ccccc1)Nc1ccc(SCc2ccccc2)cn1 [Compound 86, N-(5-Benzylsulfanyl-pyridin-2-yl)-3-phenyl-propionamide]	92.8
COc1ccc(Cc2nnc(NC(=O)CCc3ccc(C)o3)s2)cc1 [Compound 88, N-[5-(4-Methoxy-benzyl)-[1,3,4]thiadiazol-2-yl]-3-(5-methyl-furan-2-yl)-propionamide]	93.5

SMILES	inhibition at 10 µM [%]
COc1ccc(Cc2nnc(NC(=O)CCc3ccccc3)s2)cc1 [Compound 89, N-[5-(4-Methoxy-benzyl)-[1,3,4]thiadiazol-2-yl]-3-phenyl-propionamide]	96.9
Cn1c(-c2ccccc2)cnc1NC(=O)CCc1ccccc1 [Compound 90, N-(1-Methyl-5-phenyl-1H-imidazol-2-yl)-3-phenyl-propionamide]	96.6
Cc1ccc(CCC(=O)Nc2ncc(-c3ccccc3)n2C)o1 [Compound 91, 3-(5-Methyl-furan-2-yl)-N-(1-methyl-5-phenyl-1H-imidazol-2-yl)-propionamide]	96
Cc1ccc(CCC(=O)Nc2ncc(/C=C/c3ccccc3)cn2)o1 [Compound 95, 3-(5-Methyl-furan-2-yl)-N-(5-styryl-pyrimidin-2-yl)-propionamide]	93.6
O=C(/C=C/c1ccccc1)Nc1ncc(/C=C/c2ccccc2)cn1 [Compound 96, 3-Phenyl-N-(5-styryl-pyrimidin-2-yl)-acrylamide]	96.8
O=C(CCc1ccccc1)Nc1ncc(/C=C/c2ccccc2)cn1 [Compound 97, 3-Phenyl-N-(5-styryl-pyrimidin-2-yl)-propionamide]	52.7
COc1ccc(-c2cnc(NC(=O)CCc3ccc(C)o3)nc2)c(OC)c1 [Compound 107, N-[5-(2,4-Dimethoxy-phenyl)-pyrimidin-2-yl]-3-(5-methyl-furan-2-yl)-propionamide]	97
O=C(Nc1ncc(-c2ccccc2)cn1)OCc1ccccc1 [Compound 108, (5-Phenyl-pyrimidin-2-yl)-carbamic acid benzyl ester]	96.9
O=C(Nc1ncc(-c2ccc(F)cc2)cn1)OCc1ccccc1 [Compound 109, [5-(4-Fluoro-phenyl)-pyrimidin-2-yl]-carbamic acid benzyl ester]	95.9
O=C(CCc1ccccc1)Nc1ccc(-c2ccccc2)cn1 [Compound 110, 3-Phenyl-N-(5-phenyl-pyridin-2-yl)-propionamide]	97
O=C(CCc1ccccc1)Nc1ccc(-c2ccc(F)cc2)cn1 [Compound 113, N-[5-(4-Fluoro-phenyl)-pyridin-2-yl]-3-phenyl-propionamide]	97.1
Cc1ccc(CCC(=O)Nc2ccc(-c3ccccc3)cn2)s1 [Compound 114, 3-(5-Methyl-thiophen-2-yl)-N-(5-phenyl-pyridin-2-yl)-propionamide]	93.4
COc1cccc(-c2ccc(NC(=O)CCc3ccc(C)o3)nc2)c1OC [Compound 115, N-[5-(2,3-Dimethoxy-phenyl)-pyridin-2-yl]-3-(5-methyl-furan-2-yl)-propionamide]	95.8
COc1cccc(-c2ccc(NC(=O)CCc3ccccc3)nc2)c1OC [Compound 116, N-[5-(2,3-Dimethoxy-phenyl)-pyridin-2-yl]-3-phenyl-propionamide]	94.1
Cc1cc(-c2ccccc2)cnc1NC(=O)CCc1ccccc1 [Compound 117, N-(3-Methyl-5-phenyl-pyridin-2-yl)-3-phenyl-propionamide]	94.6
Cc1cc(-c2ccc(N(C)C)cc2)cnc1NC(=O)C(C)Cc1ccccc1 (stereo not shown) [Compound 121, N-[5-(4-Dimethylamino-phenyl)-3-methyl-pyridin-2-yl]-2-methyl-3-phenyl-propionamide]	93.5
Cc1ccc(CCC(=O)Nc2cnc(-c3ccccc3)cn2)o1 [Compound 122, 3-(5-Methyl-furan-2-yl)-N-(5-phenyl-pyrazin-2-yl)-propionamide]	80.8
